Some test systems named below: SK-OV-3 ovarian; OVCAR-3 ovarian; RPMI-8226 leukemia; SK-MEL-5 melanoma; HT29 colon; UACC-257 melanoma; SK-MEL-2 melanoma; HL-60(TB) leukemia; HCT-15 colon; MDA-N; UO-31 renal; SF-268 CNS; NCI/ADR-RES ovarian; SN12C renal; RXF 393 renal; A498 renal.
What all share (test): NCI tumour cell line growth inhibition, 48 h

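Exposure lasted 48 hours, with cells grown in 96-well plates and compounds tested at five concentrations. TGI: total growth inhibition.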 Some results are limits rather than exact numbers.

On to `CC(Cc1ccc2c(c1)OCO2)N(C)C(=O)C1=CCN(C)CC1` (centres undefined), for which the TGI in the experiment with SK-OV-3 ovarian, in the experiment with OVCAR-3 ovarian, in the experiment on RPMI-8226 leukemia, in the experiment with SK-MEL-5 melanoma, in the experiment on HT29 colon and in the experiment with UACC-257 melanoma was above 100 µM each time. Besides, the TGI in the experiment with SK-MEL-2 melanoma, in the experiment with HL-60(TB) leukemia, in the experiment on HCT-15 colon, with MDA-N, in the experiment on UO-31 renal and in the experiment with SF-268 CNS was above 100 µM throughout. Besides, the TGI in the experiment on NCI/ADR-RES ovarian, with SN12C renal and with RXF 393 renal was above 100 µM in each case.
For `CCCN(CCC)C(=O)c1c(Cl)c2cccnc2n2c(C)cnc12`, the TGI in the experiment with SK-OV-3 ovarian, with OVCAR-3 ovarian, with RPMI-8226 leukemia, in the experiment on SK-MEL-5 melanoma, with A498 renal and in the experiment on HT29 colon was above 100 µM each time. The TGI with UACC-257 melanoma is above 100 µM; with HL-60(TB) leukemia it was 71.7 µM; in the experiment on MDA-N it was above 100 µM; in the experiment on UO-31 renal, above 100 µM; in the experiment with SF-268 CNS, above 100 µM; in the experiment on NCI/ADR-RES ovarian it was above 100 µM. For the same molecule, the TGI in the experiment with SN12C renal and in the experiment on RXF 393 renal was above 100 µM throughout.
As to `CC(=O)Oc1cc(S(=O)(=O)Nc2n[nH]c(N)n2)c(S)cc1Cl`, the TGI with OVCAR-3 ovarian, in the experiment with RPMI-8226 leukemia, with SK-MEL-5 melanoma, in the experiment with A498 renal, with HT29 colon and in the experiment on UACC-257 melanoma was above 100 µM throughout. The TGI in the experiment with SK-MEL-2 melanoma, with HL-60(TB) leukemia, in the experiment with HCT-15 colon, with MDA-N, in the experiment on UO-31 renal and in the experiment on NCI/ADR-RES ovarian was above 100 µM each time. For the same molecule, the TGI in the experiment with SN12C renal is above 100 µM.
In the case of `CN(C)C(=O)Oc1ccc(C(=S)Nc2ccccc2)cc1Br`, the TGI in the experiment with SK-OV-3 ovarian was above 100 µM; with OVCAR-3 ovarian, above 100 µM; in the experiment on RPMI-8226 leukemia it was 73.9 µM; in the experiment on SK-MEL-5 melanoma, 32.2 µM; with HT29 colon it was 65.1 µM; with UACC-257 melanoma, 74 µM. Besides, the TGI with SK-MEL-2 melanoma was 71.5 µM; in the experiment on HL-60(TB) leukemia, 39.6 µM; in the experiment with HCT-15 colon, above 100 µM; in the experiment on MDA-N, 57.4 µM; with UO-31 renal it was above 100 µM; in the experiment on SF-268 CNS, 23.5 µM. In the experiment with NCI/ADR-RES ovarian, this molecule returned a TGI of 63.9 µM.
In the case of `O=C(Nc1ccc(S(=O)(=O)Nc2ncccn2)cc1)c1c2ccccc2nc2ccccc12`, the TGI in the experiment on SK-OV-3 ovarian, in the experiment with OVCAR-3 ovarian, with RPMI-8226 leukemia, in the experiment with SK-MEL-5 melanoma, with A498 renal and in the experiment on HT29 colon was above 100 µM in each case. Moreover, the TGI in the experiment with UACC-257 melanoma, in the experiment on SK-MEL-2 melanoma, in the experiment with HL-60(TB) leukemia, in the experiment with HCT-15 colon, in the experiment with MDA-N and in the experiment with UO-31 renal was above 100 µM throughout. Further, the TGI in the experiment with SF-268 CNS, in the experiment with NCI/ADR-RES ovarian and in the experiment on SN12C renal was above 100 µM throughout.
`Cc1nc(Nc2nc3ccccc3[nH]2)[nH]c(=O)c1CCO`: the TGI in the experiment with SK-OV-3 ovarian is above 82.1 µM; with OVCAR-3 ovarian, above 100 µM; with SK-MEL-5 melanoma, above 100 µM; in the experiment on A498 renal, above 100 µM; in the experiment on HT29 colon it was above 100 µM; in the experiment with UACC-257 melanoma it was above 100 µM. In addition, the TGI with SK-MEL-2 melanoma, with HL-60(TB) leukemia, with HCT-15 colon, in the experiment with MDA-N, in the experiment with UO-31 renal and in the experiment with SF-268 CNS was above 100 µM each time. Also, the TGI was above 100 µM with NCI/ADR-RES ovarian, above 100 µM with SN12C renal and above 84.3 µM in the experiment on RXF 393 renal.
`Cc1ccc(-n2cc(-c3ccc(Cl)cc3)c(C#N)c2N)cc1`: the TGI came out at 43.4 µM in the experiment with SK-OV-3 ovarian; 29.1 µM with OVCAR-3 ovarian; 29.7 µM in the experiment on SK-MEL-5 melanoma; 35.6 µM in the experiment on A498 renal; 27 µM in the experiment with HT29 colon; 27.9 µM in the experiment with UACC-257 melanoma. In addition, the TGI in the experiment with SK-MEL-2 melanoma came out at 29.4 µM; in the experiment with HL-60(TB) leukemia, 90.7 µM; in the experiment with HCT-15 colon it was 25 µM; with MDA-N, 32.5 µM; in the experiment on UO-31 renal, 26.5 µM; in the experiment on SF-268 CNS, 42.3 µM. For the same molecule, the TGI with NCI/ADR-RES ovarian was determined as 39.1 µM; with SN12C renal, 28 µM; in the experiment on RXF 393 renal, 23.1 µM.
With `CC[C@H](C)[C@H]1NC(=O)[C@@H](NC(=O)[C@@H](CC(C)C)N(C)C(=O)C2CCCN2C(=O)[C@H](C)O)[C@@H](C)OC(=O)[C@H](Cc2ccccc2)N(C)C(=O)[C@@H]2CCCN2C(=O)[C@H](CC(C)C)NC(=O)[C@@H](C)C(=O)[C@H](C(C)C)OC(=O)C[C@@H]1O` (some centres undefined), the TGI is 0.101 µM in the experiment with SK-OV-3 ovarian; 0.0113 µM in the experiment with OVCAR-3 ovarian; 0.0508 µM with A498 renal; 0.0205 µM with HT29 colon; below 0.00625 µM with UACC-257 melanoma; 0.0954 µM in the experiment on SK-MEL-2 melanoma. For the same molecule, the TGI was above 62.5 µM in the experiment on HL-60(TB) leukemia; 0.556 µM in the experiment with HCT-15 colon; 0.109 µM with MDA-N; below 0.00625 µM with UO-31 renal; 0.00762 µM in the experiment with SF-268 CNS; 1.6 µM in the experiment with NCI/ADR-RES ovarian. Also, the TGI in the experiment on SN12C renal was above 14.5 µM; in the experiment on RXF 393 renal it was 0.0179 µM.
With `O=C1C(NS(=O)(=O)c2ccccc2)=C(N(Cc2ccccc2)Cc2ccccc2)C(=O)c2ccccc21`, the TGI in the experiment on SK-OV-3 ovarian is above 100 µM; in the experiment on OVCAR-3 ovarian, above 100 µM; in the experiment with RPMI-8226 leukemia, 72.7 µM; in the experiment on SK-MEL-5 melanoma, above 100 µM; with HT29 colon, above 100 µM; in the experiment on UACC-257 melanoma, above 100 µM. Further, the TGI with SK-MEL-2 melanoma was 45.8 µM; in the experiment with HL-60(TB) leukemia it was 66.1 µM; in the experiment on HCT-15 colon it was above 100 µM; in the experiment on MDA-N, above 100 µM; in the experiment on UO-31 renal, 51.3 µM; in the experiment on SF-268 CNS, above 100 µM. Besides, the TGI in the experiment with NCI/ADR-RES ovarian is above 100 µM; in the experiment with SN12C renal, above 100 µM; in the experiment with RXF 393 renal it was 67.8 µM.

These data come from PubChem BioAssay (NCI).
